{"source": "patent US20200093949A1", "about": "“COMBINED ODOR ABSORPTION AND INSECT REPELLENT COMPOSITIONS, TREATMENTS, AND METHODS OF USE” (priority 2014, published 2020)", "origin": "cited, not measured here", "test_system": "yellow fever mosquito", "conditions": "compared with DEET", "data": [{"smiles": "CCC(C)OC(=O)N1CCCCC1CCO", "note": "(stereo not shown) [Picaridin, 2-(2-hydroxyethyl)-1-piperidine carboxylic acid 1-methylpropyl ester]", "values": [{"measurement": "time of protection of guinea pigs from bites, post application", "value": "longer times"}]}]}
